In patent publication US20110021565A1, “PIPERIDINE DERIVATIVES AS NK3 ANTAGONISTS” (priority 2007, published 2011):
Like-named read-outs stand apart in the source and are kept apart here.

Target: T1, recombinant human NK3 receptor (Homo sapiens, UniProt P29371)
T1 construct: expressed in transfected cells; host or cells: HEK293 cells, transient expression; membrane preparation
T1 sequence (P29371 1-465): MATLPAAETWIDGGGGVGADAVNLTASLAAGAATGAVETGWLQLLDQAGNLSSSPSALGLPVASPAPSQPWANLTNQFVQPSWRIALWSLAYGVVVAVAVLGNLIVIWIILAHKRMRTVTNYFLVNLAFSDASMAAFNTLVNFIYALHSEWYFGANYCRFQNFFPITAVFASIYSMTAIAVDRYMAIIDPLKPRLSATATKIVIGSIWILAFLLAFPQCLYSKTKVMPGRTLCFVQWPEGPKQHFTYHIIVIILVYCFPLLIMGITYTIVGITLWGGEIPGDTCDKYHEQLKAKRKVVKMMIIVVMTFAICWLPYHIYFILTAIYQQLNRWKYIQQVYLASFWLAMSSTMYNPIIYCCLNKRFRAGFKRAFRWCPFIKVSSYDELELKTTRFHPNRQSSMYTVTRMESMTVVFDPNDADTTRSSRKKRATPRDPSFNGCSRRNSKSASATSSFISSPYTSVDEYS
Assay: [3H]SR142801 competition binding assay
In short: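 Ki derived by Cheng-Prusoff from Hill-fitted IC50 curves, duplicates, 10 μM SB222200 defining nonspecific binding. Radioligand used at KD concentration against compound at 0.0003-10 μM; transiently transfected HEK293 membranes, 5 μg/well, 75 min room temperature, Tris-HCl/MnCl2/phosphoramidon/BSA pH 7.4. Filter-bound counts read by scintillation.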

[1] = [3H]SR142801, membranes of HEK293 cells transiently expressing recombinant human NK3 receptor, read-out: hNK3 Ki
[2] = representative compounds, [3H]SR142801, HEK293 membranes, human NK3 receptor, read-out: Ki NK3 h

Ki [1] [nM] | Ki [2] [nM] | SMILES
1.7 | 1.7 | CCN(C1CCN(CCC(C)(C(=O)N(C)Cc2ccc(C(F)(F)F)cc2)c2ccc(Cl)c(Cl)c2)CC1)S(C)(=O)=O (centres unmarked) [Example 76, 2-(3,4-Dichloro-phenyl)-4-[4-(ethyl-methanesulfonyl-amino)-piperidin-1-yl]-2,N-dimethyl-N-(4-trifluoromethyl-benzyl)-butyramide]
3.1 | 3.1 | CCN(C1CCN(CCC(C)(C(=O)N(C)Cc2ccc(C)cc2)c2ccc(Cl)c(Cl)c2)CC1)S(C)(=O)=O (centres unmarked) [Example 77, 2-(3,4-Dichloro-phenyl)-4-[4-(ethyl-methanesulfonyl-amino)-piperidin-1-yl]-2,N-dimethyl-N-(4-methyl-benzyl)-butyramide]
3.6 | 3.6 | CCN(C1CCN(CCC(C)(C(=O)N(C)Cc2ccccc2Cl)c2ccc(Cl)c(Cl)c2)CC1)S(C)(=O)=O (centres unmarked) [Example 78, N-(2-Chloro-benzyl)-2-(3,4-dichloro-phenyl)-4-[4-(ethyl-methanesulfonyl-amino)-piperidin-1-yl]-2,N-dimethyl-butyramide]
3 | 3 | CN(Cc1ccc(C(F)(F)F)c(F)c1)C(=O)C(C)(CCN1CCC(N2CCCC2=O)CC1)c1ccc(Cl)c(Cl)c1 (centres unmarked) [Example 81, 2-(3,4-Dichloro-phenyl)-N-(3-fluoro-4-trifluoromethyl-benzyl)-2,N-dimethyl-4-[4-(2-oxo-pyrrolidin-1-yl)-piperidin-1-yl]-butyramide]
1.2 | 1.2 | CN(Cc1ccc(Cl)c(Cl)c1)C(=O)C(C)(CCN1CCC(N2CCCC2=O)CC1)c1ccc(Cl)c(Cl)c1 (centres unmarked) [Example 82, N-(3,4-Dichloro-benzyl)-2-(3,4-dichloro-phenyl)-2,N-dimethyl-4-[4-(2-oxo-pyrrolidin-1-yl)-piperidin-1-yl]-butyramide]
2.3 | 2.3 | CC(CCN1CCC(N2CCCC2=O)CC1)(C(=O)NCc1ccc(Cl)c(Cl)c1)c1ccc(Cl)c(Cl)c1 (centres unmarked) [Example 83, N-(3,4-Dichloro-benzyl)-2-(3,4-dichloro-phenyl)-2-methyl-4-[4-(2-oxo-pyrrolidin-1-yl)-piperidin-1-yl]-butyramide]
2.1 | 2.1 | CN(Cc1ccc(Cl)cc1)C(=O)C(C)(CCN1CCC(N2CCCC2=O)CC1)c1ccc(Cl)c(Cl)c1 (centres unmarked) [Example 84, N-(4-Chloro-benzyl)-2-(3,4-dichloro-phenyl)-2,N-dimethyl-4-[4-(2-oxo-pyrrolidin 1-yl)-piperidin-1-yl]-butyramide]
1.4 | 1.4 | CN(Cc1ccc(Cl)c(C(F)(F)F)c1)C(=O)C(C)(CCN1CCC(N2CCCC2=O)CC1)c1ccc(Cl)c(Cl)c1 (centres unmarked) [Example 85, N-(4-Chloro-3-trifluoromethyl-benzyl)-2-(3,4-dichloro-phenyl)-2,N-dimethyl-4-[4-(2-oxo-pyrrolidin-1-yl)-piperidin-1-yl]-butyramide]
1.4 | 1.4 | CN(Cc1ccc(F)c(C(F)(F)F)c1)C(=O)C(C)(CCN1CCC(N2CCCC2=O)CC1)c1ccc(Cl)c(Cl)c1 (centres unmarked) [Example 86, 2-(3,4-Dichlorophenyl)-N-(4-fluoro-3-trifluoromethyl-benzyl)-2,N-dimethyl-4-[4-(2-oxo-pyrrolidin-1-yl)-piperidin-1-yl]-butyramide]
4.6 | 4.6 | CN(Cc1cccc(Cl)c1)C(=O)C(C)(CCN1CCC(N2CCCC2=O)CC1)c1ccc(Cl)c(Cl)c1 (centres unmarked) [Example 87, N-(3-Chloro-benzyl)-2-(3,4-dichloro-phenyl)-2,N-dimethyl-4-[4-(2-oxo-pyrrolidin-1-yl)-piperidin-1-yl]-butyramide]
1.8 | 1.8 | CN(Cc1ccc(C(F)(F)F)cc1)C(=O)C(C)(CCN1CCC(N2CCCC2=O)CC1)c1ccc(Cl)c(Cl)c1 (centres unmarked) [Example 88, 2-(3,4-Dichloro-phenyl)-2,N-dimethyl-4-[4-(2-oxo-pyrrolidin-1-yl)-piperidin-1-yl]-N-(4-trifluoromethyl-benzyl)-butyramide]
5.3 | 5.3 | Cc1ccc(CN(C)C(=O)C(C)(CCN2CCC(N3CCCC3=O)CC2)c2ccc(Cl)c(Cl)c2)cc1 (centres unmarked) [Example 89, 2-(3,4-Dichloro-phenyl)-2,N-dimethyl-N-(4-methyl-benzyl)-4-[4-(2-oxo-pyrrolidin-1-yl)-piperidin-1-yl]-butyramide]
2.5 | 2.5 | CN(Cc1ccccc1Cl)C(=O)C(C)(CCN1CCC(N2CCCC2=O)CC1)c1ccc(Cl)c(Cl)c1 (centres unmarked) [Example 90, N-(2-Chloro-benzyl)-2-(3,4-dichloro-phenyl)-2,N-dimethyl-4-[4-(2-oxo-pyrrolidin-1-yl)-piperidin-1-yl]-butyramide]
51.2 |  | CC(NC(=O)C(C)(CCN1CCC(N2CCCC2=O)CC1)c1ccc(Cl)c(Cl)c1)c1ccccc1 (centres unmarked) [Example 91, 2-(3,4-Dichloro-phenyl)-2-methyl-4-[4-(2-oxo-pyrrolidin-1-yl)-piperidin-1-yl]-N-(1-phenyl-ethyl)-butyramide]
991 |  | CC(C)(NC(=O)C(C)(CCN1CCC(N2CCCC2=O)CC1)c1ccc(Cl)c(Cl)c1)c1ccccc1 (centres unmarked) [Example 92, 2-(3,4-Dichloro-phenyl)-2-methyl-N-(1-methyl-1-phenyl-ethyl)-4-[4-(2-oxo-pyrrolidin-1-yl)-piperidin-1-yl]-butyramide]
184 |  | CC(CCN1CCC(N2CCCC2=O)CC1)(C(=O)NC1(c2ccccc2)CC1)c1ccc(Cl)c(Cl)c1 (centres unmarked) [Example 93, 2-(3,4-Dichlorophenyl)-2-methyl-4-[4-(2-oxo-pyrrolidin-1-yl)-piperidin-1-yl]-N-(1-phenyl-cyclopropyl)-butyramide]
4.7 | 4.7 | CC(CCN1CCC(N2CCCC2=O)CC1)(C(=O)NC(c1ccccc1)C(F)(F)F)c1ccc(Cl)c(Cl)c1 (centres unmarked) [Example 95, 2-(3,4-Dichloro-phenyl)-2-methyl-4-[4-(2-oxo-pyrrolidin-1-yl)-piperidin-1-yl]-N-(2,2,2-trifluoro-1-phenyl-ethyl)-butyramide]
7.2 | 7.2 | CC(CCN1CCC(N2CCCC2=O)CC1)(C(=O)NC(c1ccc(F)cc1)C(F)(F)F)c1ccc(Cl)c(Cl)c1 (centres unmarked) [Example 96, 2-(3,4-Dichloro-phenyl)-2-methyl-4-[4-(2-oxo-pyrrolidin-1-yl)-piperidin-1-yl]-N-[2,2,2-trifluoro-1-(4-fluoro-phenyl)-ethyl]-butyramide]
8.1 |  | CC(CCN1CCC(N2CCCC2=O)CC1)(C(=O)NC(c1ccc(C(F)(F)F)cc1)C(F)(F)F)c1ccc(Cl)c(Cl)c1 (centres unmarked) [Example 97, 2-(3,4-Dichloro-phenyl)-2-methyl-4-[4-(2-oxo-pyrrolidin-1-yl)-piperidin-1-yl]-N-[2,2,2-trifluoro-1-(4-trifluoromethyl-phenyl)-ethyl]-butyramide]
5.8 | 5.8 | CC(=O)N(C)C1CCN(CCC(C)(C(=O)NCc2ccc(C(F)(F)F)c(F)c2)c2ccc(Cl)c(Cl)c2)CC1 (centres unmarked) [Example 99, 4-[4-(Acetyl-methyl-amino)-piperidin-1-yl]-2-(3,4-dichloro-phenyl)-N-(3-fluoro-4-trifluoromethyl-benzyl)-2-methyl-butyramide]
3 | 3 | CC(=O)N(C)C1CCN(CCC(C)(C(=O)N(C)Cc2ccc(Cl)c(Cl)c2)c2ccc(Cl)c(Cl)c2)CC1 (centres unmarked) [Example 100, 4-[4-(Acetyl-methyl-amino)-piperidin-1-yl]-N-(3,4-dichloro-benzyl)-2-(3,4-dichloro-phenyl)-2,N-dimethyl-butyramide]
